Data reported in patent US20230217875A1, “IN VITRO EMBRYO RESCUE” (priority 2020, published 2023).

Experiments:
[1] = system: Triploid Arabidopsis thaliana (Col-0) embryos; experiment: in vitro embryo rescue of interploidy hybridization (Col 2x x Col 4x), embryo survival; format: cell-based; conditions: for embryo appearance and growth: MS medium supplemented with the sugar, majority of triploid embryos (FIGS. 1C-1H)
Method: (§1) Seeds of Arabidopsis and Capsella were surface sterilized (5% sodium hypochlorite, 0.05% Triton X-100) for 10 min, washed three times in sterile ddH2O and then plated on half Murashige and Skoog (MS) medium, i.e., MS medium as defined below but half the concentration of the included ingredients. After stratification for 3 day at 4° C., plants were grown in a growth room under long-day photoperiod (16 hours light and 8 hours darkness) at 22° C. Eight-day-old seedlings were transferred to soil and plants were grown in a growth room at 60% humidity and daily cycles of 16 hours light at 22° C. and 8 hours darkness at 18° C. For crosses, designated female flower buds were emasculated, and the pistils hand-pollinated at 2 days after emasculation.
(§2) • 70% Ethanol; • Sterilizing solution (5% sodium hypochlorite+0.01% (v/v) of Triton X-100 or TWEEN® 20); • Autoclaved water; • Murashige & Skoog (MS) medium (Murashige and Skoog 1962): MS basal salt mixture 4.4 g/L, 0.7% plant agar, pH 5.8 and vitamins (glycine 2 mg/I, myo-inositol 100 mg/I, nicotinic acid 0.5 mg/I, pyridoxine HCl 0.5 mg/I and thiamine HCl 0.1 mg/I); • Nitsch medium (Nitsch & Nitsch 1969): basal salt mixture 2.1 g/L, 0.7% plant agar, pH 5.8 and vitamins (biotin 0.05 mg/I, folic acid 0.5 mg/I, glycine 2 mg/I, myo-inositol 100 mg/I, nicotinic acid 5 mg/I, pyridoxine HCl 0.5 mg/I and thiamine HCl 0.5 mg/I);
(§3) Triploid Arabidopsis seeds were derived from crossing diploid Arabidopsis females with tetraploid Arabidopsis pollen donors. Interspecific hybrid Capsella seeds were derived from crossing Capsella rubella females with Capsella grandiflora pollen donors. Hybrid embryos were isolated at the torpedo stage, at around 8 to 9 days after pollination (DAP) for Arabidopsis and 9 to 10 DAP for Capsella.
Under a sterile hood, the siliques of the crosses were incubated for 30 s in 70% ethanol, 30 s in sterilizing solution and 30 s in sterile water. […] Under a dissection microscope, the silique was opened with fine needles, and all seeds were transferred on the wet filter paper. The embryos were gently dissected and placed on the filter paper. During the dissection, the embryos and seeds should not become desiccated. The plates were sealed with Millipore tape and incubated under long-day photoperiod (16 hours light and 8 hours darkness) at 22° C.
After 5-7 days culture on MS medium with trehalose for Arabidopsis or 7-10 days for Capsella, viable embryos could be recognized by their green color and increased size that corresponded to the size of embryos at the bent cotyledon stage (FIG. 1J). Viable embryos were then transferred to Nitsch medium containing lower concentrations of trehalose, 1.5% (w/v) for Arabidopsis, 3% (w/v) for Capsella. Embryos were transferred from MS medium to Nitsch medium after two weeks. Transfer to Nitsch medium reduced vitrification, which is a frequently occurring phenomenon in tissue-cultured plants causing excessive hydration of tissues and reducing survival rate. Continued growth on MS medium for 3 weeks caused vitrification in Arabidopsis and Capsella seedlings (FIGS. 1L, 2I), but this phenomenon was suppressed by transfer to Nitsch medium (FIGS. 1M, 2J). After about two weeks of incubation, the initiation of roots could be observed (FIG. 1K) and the plantlets could be transferred to soil and continued to grow under long-day photoperiod (16 h light/8 h dark) at 22° C. in a growth room. […]

[2] = system: Hybrid embryos of Capsella (Capsella rubella×Capsella grandiflora); experiment: in vitro embryo rescue of interspecies hybrids, embryo survival; format: cell-based; conditions: for effect on embryo survival: MS medium supplemented with the sugar (FIG. 2A); for embryo appearance and growth: MS medium supplemented with the sugar, majority of embryos (FIGS. 2C-2H)
Method: as §1, §2, §3
Under a sterile hood, the siliques of the crosses were incubated for 30 s in 70% ethanol, 30 s in sterilizing solution and 30 s in sterile water. The siliques were placed on MS medium supplemented with 3% (w/v) trehalose overlaid with a filter paper and several drops of sterile liquid MS medium were added on the silique. Under a dissection microscope, the silique was opened with fine needles, and all seeds were transferred on the wet filter paper. The embryos were gently dissected and placed on the filter paper. During the dissection, the embryos and seeds should not become desiccated. The plates were sealed with Millipore tape and incubated under long-day photoperiod (16 hours light and 8 hours darkness) at 22° C.
After 5-7 days culture on MS medium with trehalose for Arabidopsis or 7-10 days for Capsella, viable embryos could be recognized by their green color and increased size that corresponded to the size of embryos at the bent cotyledon stage (FIG. 1J). Viable embryos were then transferred to Nitsch medium containing lower concentrations of trehalose, 1.5% (w/v) for Arabidopsis, 3% (w/v) for Capsella. Embryos were transferred from MS medium to Nitsch medium after two weeks. Transfer to Nitsch medium reduced vitrification, which is a frequently occurring phenomenon in tissue-cultured plants causing excessive hydration of tissues and reducing survival rate. Continued growth on MS medium for 3 weeks caused vitrification in Arabidopsis and Capsella seedlings (FIGS. 1L, 2I), but this phenomenon was suppressed by transfer to Nitsch medium (FIGS. 1M, 2J). After about two weeks of incubation, the initiation of roots could be observed (FIG. 1K) and the plantlets could be transferred to soil and continued to grow under long-day photoperiod (16 h light/8 h dark) at 22° C. in a growth room.
To rescue interspecific hybrids of Capsella, the protocol was the same as above for A. thaliana but with minor changes for the trehalose concentration. Hybrid embryos of Capsella (Capsella rubella×Capsella grandiflora) were dissected at the torpedo stage under a stereomicroscope under sterile conditions on a laminar flow bench. […]

rice triploid embryos = experiment: rescue of triploid rice embryos, embryo survival; format: cell-based, Oryza sativa L. cv. Suitou nourin 8
Method: To obtain triploids of cultivated rice (Oryza sativa L. cv. Suitou nourin 8), diploid plants (JP9838) were emasculated and pollinated with pollen from tetraploid plants (JP7525). Triploid hybrid embryos were dissected under sterile conditions at 10-12 days after pollination (DAP) under a stereomicroscope. The isolated embryos were cultured in vitro on MS medium supplemented with 1.5% (w/v, 43.8 mM) trehalose together with sucrose (1.5%) and compared to MS medium supplemented with only sucrose (3%). […] The viable triploid embryos were transferred to MS medium containing lower concentrations of trehalose (0.75% w/v) together with 2.25% (w/v) sucrose for two weeks, until the initiation of roots could be observed (FIG. 3F). The plantlets were transferred to soil and their ploidy levels were validated by flow cytometry.
Cultivated rice (Oryza sativa L. cv. Suitou nourin 8, diploid, JP9838, and cv. Suitou nourin 8, tetraploid, JP7525) seeds were obtained from the National Institute of Agrobiological Sciences in Japan (http://www.gene.affrc.go.jp). Rice seeds were grown on soil and cultivated in a phytotron. Cultivating conditions were 14 h light and 10 h dark at 30° C./21° C. with a constant humidity of 80% and light intensity of 400 μmol per m^−2 s^−1. For crossing, designated diploid plants were emasculated and pollination was performed immediately after emasculation.
Under a sterile hood, immature triploid rice seeds at 10-12 DAP were dehusked using a pair of tweezers and sterilized for 2 min in 70% ethanol, followed by 15 min in 5% sodium hypochlorite with gentle mixing, 2 min in sterile water. The seeds were placed on MS medium supplemented with 1.5% (w/v) trehalose together with 1.5% (w/v) sucrose overlaid with a filter paper. Under a dissection microscope, the seed coat was removed with fine needles, and dissected embryos were transferred on the wet filter paper. During the dissection, the embryos should not become desiccated. The plates were sealed with Millipore tape and incubated under long-day photoperiod (16 hours light and 8 hours darkness) at 22° C. After 5-7 days of culture on MS medium with trehalose, viable embryos could be recognized by their light green color and increased size (FIG. 3E), compared to aborted embryos with dark brown color (FIG. 3D). Viable embryos were then transferred to MS medium containing lower concentrations of trehalose, 0.75% (w/v) together with 2.25% (w/v) sucrose. After about two weeks of incubation, the initiation of roots could be observed (FIG. 3F) and the plantlets could be transferred to soil and grows in a phytotron.

[3] = MS medium with only sucrose (3%)

Row | SMILES | embryo appearance and growth [1] | effect on embryo survival [2] | embryo appearance and growth [2] | embryo appearance and growth (rice triploid embryos; [3]) | embryos survived (rice triploid embryos; [3]) | embryo survival rate ([1]; MS medium supplemented with 3% (w/v) sugar, embryos at torpedo stage, 14 days of in vitro culture (FIG. 1A)) | highest survival rate ([1]; plates containing 2% (w/v) trehalose, 14 days (FIG. 1B)) | hybrid embryos rescued (survival rate) ([2]; MS medium supplemented with 3% (w/v) sugar, 14 days (FIG. 2A)) [%] | highest survival rate ([2]; plates containing 6% trehalose, 14 days (FIG. 2B)) | embryos survived (rice triploid embryos; MS medium with 1.5% (w/v) trehalose together with sucrose (1.5%), after one week of culture) | embryo appearance (rice triploid embryos; MS medium with 1.5% trehalose together with 1.5% sucrose, after one week)
1 | O=C(CO)[C@@H](O)[C@H](O)[C@H](O)CO [fructose] | turned from light green to white and growth was arrested | did not improve embryo survival | turned from light green to white and growth was arrested |  |  |  |  |  |  |  | 
2 | O=C[C@H](O)[C@@H](O)[C@@H](O)[C@H](O)CO [galactose] | turned from light green to white and growth was arrested | did not improve embryo survival | turned from light green to white and growth was arrested |  |  |  |  |  |  |  | 
3 | OC[C@H]1O[C@@](CO)(O[C@H]2O[C@H](CO)[C@@H](O)[C@H](O)[C@H]2O)[C@@H](O)[C@@H]1O [sucrose] | turned from light green to white and growth was arrested | did not improve embryo survival | turned from light green to white and growth was arrested | arrested growth and turned dark brown | none |  |  |  |  |  | 
4 | OC[C@H]1O[C@H](O[C@H]2O[C@H](CO)[C@@H](O)[C@H](O)[C@H]2O)[C@H](O)[C@@H](O)[C@@H]1O [trehalose] |  |  |  |  |  | over 70% | over 90% | 80 | over 90% | Around 30% | turning light green
